# Reference: patent publication EP0973746B1, “SUBSTITUTED 3-CYANO QUINOLINES” (Wyeth Holdings Corporation, priority 1997, dated 1998)
# pIC50: −log10 of the molar value. “And” between values parts separate entries of the source, which are not always exact repeats. Equal values may be shown once.
# Target: recombinant human MEK 1 (MAPKK) and recombinant human ERK2 (MAPK)
# Test: Mitogen Activated Protein Kinase (MAPK) assay, two component coupled MEK 1 / ERK2;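 also: MEK 1-activated ERK2 phosphorylates MBP or Myc peptide with 33P-ATP, filter capture and scintillation counting, inhibitor preincubated with ERK2 30 min at 0 °C, inhibition relative to uninhibited control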
# Format: biochemical
# Settings: separate entries for the same compound = evaluated more than one time
row,SMILES,pIC50
1,COCCOc1ccc2ncc(C#N)c(Nc3cccc(N(C)C)c3)c2c1OCCOC [Example 117],4.40 and 4.55
2,COc1cc2ncc(C#N)c(Nc3ccc(F)c(Cl)c3)c2cc1OCCCN1CCOCC1 [Example 125],< 4.00
3,COc1cc2ncc(C#N)c(Nc3cccc(Br)c3)c2cc1OCCCN1CCOCC1 [Example 126],< 4.00
4,"N#Cc1cnc2ccc([N+](=O)[O-])cc2c1Nc1cccc(I)c1 [Example 131, 4-[(3-Iodophenyl)amino]-6-nitro-3-quinolinecarbonitrile]",< 4.00
5,Cc1cccc(Nc2c(C#N)cnc3ccc([N+](=O)[O-])cc23)c1 [Example 134],< 4.00 and 4.10
6,"N#Cc1cnc2ccc(N)cc2c1Nc1cccc(Cl)c1 [Example 136, 6-Amino-4-[(3-chlorophenyl)amino]-3-quinolinecarbonitrile]",4.15 and < 4.00
7,"COc1cccc(Nc2c(C#N)cnc3ccc(N)cc23)c1 [Example 141, 6-Amino-4-[(3-methoxyphenyl)amino]-3-quinolinecarbonitrile]",4.46
8,"N#Cc1cnc2ccc(N)cc2c1Nc1ccc(F)c(Cl)c1 [Example 149, 6-Amino-4-[(3-chloro-4-fluorophenyl)amino]-3-quinolinecarbonitrile]",5.70 and 5.40
9,"N#Cc1cnc2ccc([N+](=O)[O-])cc2c1Nc1ccc(F)c(Cl)c1 [Example 150, 4-[(3-chloro-4-fluorophenyl)amino]-6-nitro-3-quinolinecarbonitrile]",< 4.00
10,"N#Cc1cnc2ccc([N+](=O)[O-])cc2c1Nc1ccc(Br)cc1 [Example 153, 4-[(4-Bromophenyl)amino]-6-nitro-3-quinolinecarbonitrile]",< 4.00
11,"N#Cc1cnc2ccc([N+](=O)[O-])cc2c1Nc1ccc(Sc2ccccc2)c(Cl)c1 [Example 159, 4-[(3-Chloro-4-thiophenoxyphenyl)amino]-6-nitro-3-quinolinecarbonitrile]",< 4.00
12,"CN(C)CC#CC(=O)Nc1ccc2ncc(C#N)c(Nc3ccc(F)c(Br)c3)c2c1 [Example 197, N-[4-[(3-Bromo-4-fluorophenyl)amino]-3-cyano-6-quinolinyl]-4-dimethylamino-2-butynamide]",4.46
13,"COc1cc2ncc(C#N)c(Nc3ccc(C)c(Br)c3)c2cc1OC [Example 248, 4-(3-Bromo-4-methyl-phenylamino)-6.7-dimethoxy-quinoline-3-carbonitrile]",5.10
14,"CCOc1cc2ncc(C#N)c(Nc3cccc(C(C)=O)c3)c2cc1OCC [Example 257, 4-(3-acetylphenylamino)-6,7-diethoxy-3-quinolinecarbonitrile]",< 4.00
15,"COc1cc2ncc(C#N)c(Nc3cccc(NC(C)=O)c3)c2cc1OC [Example 265, 4-(3-Acetamidophenylamino)-6,7-dimethoxy-3-quinolinecarbonitrile]",4.70
16,"CC#CC(=O)Nc1cccc(Nc2c(C#N)cnc3cc(OC)c(OC)cc23)c1 [Example 266, 4-[3-(2-Butynoylamino)phenylamino]1-6,7-dimethoxy-3-quinolinecarbonitrile]",< 4.00
17,"COc1cc2ncc(C#N)c(Nc3cccc(CCl)c3)c2cc1OC [Example 268, 4-[3-(Chloromethyl)phenylamino]-6,7-dimethoxy-3-quinolinecarbonitrile]",4.82
18,"COc1cc2ncc(C#N)c(Nc3cc(C)c(O)c(C)c3)c2cc1OC [Example 288, 4-(4-Hydroxy-3,5-dimethyl-phenylamino)-6,7-dimethoxy-quinoline-3-carbinitile]",4.80
19,"COc1cc2ncc(C#N)c(Nc3cccnc3)c2cc1OC [Example 293, 6,7-Dimethoxy-4-(pyridin-3-ylamino)-quinoline-3-carbonitrile]",< 4.00
20,"COc1cc2ncc(C#N)c(Nc3ccc(O)cc3Cl)c2cc1OC [Example 296, 4-(2-Chloro-4-hydroxy-phenylamino)-6,7-dimethoxy-quinoline-3-carbonitrile]",5.46
21,"COc1cc2ncc(C#N)c(Nc3ccc(SC)cc3)c2cc1OC [Example 298, 6.7-Dimethoxy-4-(4-methylsulfanyl-phenylamino)-quinoline-3-carbonitrile]",> 6.00
